This note sets out measurements from US7696149B2, “Pharmaceutical administration form for peptides, process for its preparation, and use” (AEterna Zentaris GmbH, priority 2000, dated 2010).

Several values for one entry are separate records, joined by “and”; a condition that tells them apart may be missing. Equal entries are not always repeated. Non-standard residues stand in square brackets, D forms with d. Residues, ends and D or L forms follow the SMILES beside them. dPhe(4-Cl) = N[C@H](Cc1ccc(Cl)cc1)C(=O)O; d2Nal = N[C@H](Cc1ccc2ccccc2c1)C(=O)O; dCit = NC(=O)NCCC[C@@H](N)C(=O)O; d3Pal = N[C@H](Cc1cccnc1)C(=O)O

The nature of series [1]: Rat animal experiment: cetrorelix residual content in the muscle 168 h after injection. Format: in vivo. As to conditions: rat. Here is the method:
(§1) After reconstitution of these lyophilizates, the solutions (2.5 mg/ml of cetrorelix) are investgated in the following tests for aggregate formation and release behaviour: • Polarization microscopy (pol. mic.): days without aggregation. • Filterability in %: • Cetrorelix solutions are prepared according to a standardized procedure and filtered through 0.22 μm or 0.45 μm filters by means of centrifugation. The concentration of cetrorelix in the filtrate is determined by HPLC and indicated as a % value, based on the starting concentration before filtration (filterability in %). • in-vitro release form (RRS, release in Ringer's solution): • % released after 1 h and after 6 h. • The in-vitro release behaviour is determined at 37° C. in a flow procedure using Ringer's solution as medium. The concentration measurement is carried out by HPLC. Cetrorelix samples, corresponding to 10 mg of cetrorelix base, are weighed into the flow cell, mixed with 4 ml of water and stirred for 10 min.
(§2) In the further rat muscle experiments shown in Table 9, in addition to the residual content in the muscle, the cetrorelix content in the plasma was additionally determined.

A short description of series [2]: Rat muscle experiment: cetrorelix content in the plasma. Format: in vivo.
Text: as §2

A short description of series [3]: In-vitro release in Ringer's solution (RRS), flow procedure at 37° C. The format is physicochemical. Here is the method:
as §1, with “([…])” for “(2.5 mg/ml of cetrorelix)”

Series [4] in a line: Polarization microscopy: aggregation of cetrorelix solutions (days without aggregation). Format: physicochemical. Here is the method: By means of polarization microscopy, aggregation investigations were carried out on solutions of various cetrorelix salts without or with addition of excipients.
In the polarization light microscope with crossed polarizers, aggregated peptide solutions show images which are very similar to those of liquid-crystalline structures. In contrast to this, aggregate-free peptide solutions produce no such effects.
as §1, with “([…])” for “(2.5 mg/ml of cetrorelix)”

The mark [5] stands for this setting: dose 1.5 mg/kg, inj. soln 3 mg/ml.
Setting [6] is: conc. of cetrorelix from lyo 15 mg/ml.
The mark [7] stands for this setting: conc. of cetrorelix from lyo 2.5 mg/ml.

Take `CC(=O)N[C@H](Cc1ccc2ccccc2c1)C(=O)N[C@H](Cc1ccc(Cl)cc1)C(=O)N[C@H](Cc1cccnc1)C(=O)N[C@@H](CO)C(=O)N[C@@H](Cc1ccc(O)cc1)C(=O)N[C@H](CCCNC(N)=O)C(=O)N[C@@H](CC(C)C)C(=O)N[C@@H](CCCNC(=N)N)C(=O)N1CCC[C@H]1C(=O)N[C@H](C)C(N)=O` [Base, cetrorelix] (Ac-[d2Nal][dPhe(4-Cl)][d3Pal]SY[dCit]LRP[dA]-NH2): the “Cetrorelix content in the muscle (168 h), % of the dose” value in series [1] (setting [5]) is recorded as 27.2 % of the dose. Moreover, in series [2] (setting [5]), the “Cetrorelix content in the plasma, % of the dose” value is given as 122.2 % of the dose.

Citrate: in series [3] (setting [6]), the “RRS, [%] after 1 h” value was 9% and the “RRS, [%] after 6 h” value is listed as 20.3%.

In the case of Lactate, in series [3] (bulk), the “RRS, [%] after 1 h” value is listed as 20% and the “RRS, [%] after 6 h” value was 55.2%.

In the case of Phosphate, the “Cetrorelix content in the muscle (168 h), % of the dose” value in series [1] (in vivo, 1.5 mg/kg) is given as 32.9 % of the dose. The “Cetrorelix content in the plasma, % of the dose” value in series [2] (in vivo, 1.5 mg/kg) is given as 22.6 % of the dose.

For the compound cetrorelix gluconate, in series [3] (setting [7]), the “RRS, [%] after 1 h” value was 18% and 11.3%. Moreover, in series [3] (setting [7]), the “RRS, [%] after 6 h” value is 45.3% and 46%. Besides, the Days without aggregation worked out at 189 days in series [4] (2.5 mg/ml cetrorelix gluconate, hydroxypropyl-β-cyclodextrin 20%); 91 days in series [4] (2.5 mg/ml cetrorelix gluconate, hydroxypropyl-β-cyclodextrin […]); 1 days in series [4] (2.5 mg/ml cetrorelix gluconate, α-cyclodextrin 5%); 140 days in series [4] (2.5 mg/ml cetrorelix gluconate, α-cyclodextrin 10%); 182 days in series [4] (2.5 mg/ml cetrorelix gluconate, γ-cyclodextrin 20%); 126 days in series [4] (2.5 mg/ml cetrorelix gluconate, γ-cyclodextrin […]). Moreover, the Days without aggregation in series [4] (cetrorelix 2.5 mg/ml, gluconic acid addition: yes, pH 3.0) is recorded as more than 30 days; in series [4] (cetrorelix 5 mg/ml, gluconic acid addition: no, pH 4.7) it was 1 days; in series [4] (cetrorelix 5 mg/ml, gluconic acid addition: no, pH 4.8), 1 days; in series [4] (cetrorelix 5 mg/ml, gluconic acid addition: yes, pH 3.6) it was 4 days; in series [4] (cetrorelix 5 mg/ml, gluconic acid addition: yes, pH 3.8), 4 days; in series [4] (cetrorelix 7.5 mg/ml, gluconic acid addition: no, pH 4.7), 0 days. In addition, the Days without aggregation in series [4] (cetrorelix 7.5 mg/ml, gluconic acid addition: no, pH 4.8) is on record as 0 days; in series [4] (cetrorelix 7.5 mg/ml, gluconic acid addition: yes, pH 3.4) it was 1 days; in series [4] (cetrorelix 7.5 mg/ml, gluconic acid addition: yes, pH 3.7) it was 1 days. Further, the “Cetrorelix content in the muscle (168 h), % of the dose” value in series [1] (in vivo, 1.5 mg/kg) is 37.9 % of the dose. For the same compound, the “Cetrorelix content in the plasma, % of the dose” value in series [2] (in vivo, 1.5 mg/kg) is given as 46.9 % of the dose.

As for cetrorelix glucuronate, the Days without aggregation is 3 days in series [4] (glucuronate salt, cetrorelix 2.5 mg/ml, glucuronic acid addition: no, pH 4.5); more than 30 days in series [4] (glucuronate salt, cetrorelix 2.5 mg/ml, glucuronic acid addition: yes, pH 2.9); 0 days in series [4] (glucuronate salt, cetrorelix 5 mg/ml, glucuronic acid addition: no, pH 4.6); more than 30 days in series [4] (glucuronate salt, cetrorelix 5 mg/ml, glucuronic acid addition: yes, pH 2.7). In addition, the “Cetrorelix content in the muscle (168 h), % of the dose” value is given as 16.5 % of the dose in series [1] (in vivo, 1.5 mg/kg) and 18.8 % of the dose in series [1] (in vivo, 3 mg/kg). The “Cetrorelix content in the plasma, % of the dose” value in series [2] (in vivo, 1.5 mg/kg) is 78.6 % of the dose.
